Eleven compounds from patent US20250074910A1, “MENIN INHIBITOR AND USE THEREOF” (HITGEN INC., priority 2021, published 2025) can be followed below.

The nature of data set [1]: Stability in mouse liver microsomes. The data set is classed as in vitro ADME. The conditions noted are these: 1.00 μM compound, NADPH; for half-life at 1 μM: liver microsomes, pH 7.4, 0.5 mg/mL microsomal protein, read-out: Half life T1/2, mouse liver microsomes. The procedure: (§1) Test Example 3: Test of Stability of Compounds in Liver Microsome
(§2) Test purpose: To determine the stability of some of the compounds of the present disclosure in mouse, dog and human liver microsomes by LC-MS/MS method.
(§3) Test materials: The test drugs were in-house prepared example compounds of the present disclosure; the positive reference compound SNDX-5613 was prepared by the method of Example 253 in patent WO2017214367; the control compound 1 was prepared by the method of Example 64 in WO2017214367; liver microsomes were purchased from CORNING.
(§4) The total volume of each incubation system was approximately 45 μL, and the medium was 100 mM phosphate buffer (PBS, pH 7.4), including liver microsomal protein at a final concentration of 0.5 mg/mL, 1.00 μM compound and 2.00 mM NADPH, and the organic phase content was <1%. Incubation was performed in a 37° C. incubator, and 135 μL of ice-cold acetonitrile was added after 0, 5, 15, 30 and 60 min of reaction to terminate the reaction. The positive control group was incubated with 1.00 μM Ketanserin, 0.5 mg/mL liver microsomal protein and 2.00 mM NADPH in a 37° C. incubator for 0, 5, 15, 30 and 60 min respectively, and then 135 μL of ice-cold acetonitrile was added to terminate the reaction. The 96-well plates were shaken at 600 rpm for 10 min and then centrifuged at 4700 rpm at 4° C. for 15 min. 80 μL of supernatant was mixed with 320 μL of pure water, and the remaining amount of the compound was detected by LC-MS/MS method. The in vitro half life (T½) and intrinsic clearance (CLint) were calculated according to the following formula:
(§5) Intrinsic clearance (Clint)=(0.693/T1/2)×(1/liver microsome concentration)×conversion factor. k is the linear regression slope of the remaining percentage of the ln compound-incubation time.

Data set [2] relates to OCI-AML3. Briefly: Cell proliferation inhibition (CellTiter-Glo), OCI-AML3 (NPM1 mutation). The data set is classed as cell-based. The conditions noted are these: OCI-AML3 cells. A digest of the protocol: (§6)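 Leukemia cells were seeded at 5,000-20,000 cells/well and exposed to test compound at final concentrations from 1 nM to 10 μM. After 72-168 h at 37° C and 5% CO2, viability was measured by CellTiter-Glo luminescence following 10 min at room temperature, and IC50 values were obtained from fitted curves.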

A short description of data set [3]: Stability in human liver microsomes. In kind it is in vitro ADME. The note with it: 0.5 mg/mL microsomal protein, 1.00 μM compound, NADPH; for half-life at 1 μM: human, liver microsomes, pH 7.4, Human, read-out: Half life T1/2, human liver microsomes. The procedure: as §1, §2, §3, §4, §5
Data set [4] relates to MOLM-13. Briefly: Cell proliferation inhibition (CellTiter-Glo), MOLM-13. The conditions noted are these: MOLM-13 cells. The data set is classed as cell-based. The procedure:
Test Example 2: Test of the Inhibitory Ability of Menin-MLL Interaction Inhibitors on Cell Proliferation
The inhibitory ability of the compounds of the present disclosure on the proliferation of tumor cell lines (including cell lines containing MLL fusion protein such as MV4-11, MOLM-13, THP-1 and NOMO-1, control cell lines without MLL fusion protein such as HL-60, K562 and MOLM-16, and cell lines containing NPM1 mutation such as OCI-AML3) was evaluated by using the cell viability analysis method. The cells were plated in 96-well plates at a certain concentration (e.g., 5,000-20,000 cells/well), and then an equal volume of culture medium containing 2 times the final concentration of the test compound (the final concentration ranging 10 from 1 nM to 10 μM) was added. The plates were placed in an incubator and cultured at 37° C. and 5% CO2 for 72-168 h. Before the test, an equal volume of CellTiter-Glo® Luminescent reagent was added, and the plate was incubated at room temperature for 10 min before detection using an ELISA reader (BMG LABTECH). The data were analyzed using GraphPad Prism software to obtain the IC50 value and compound fitting curve. The control compound 1 was prepared by referring to the method of Example 64 in WO2017214367.

For data set [5], the system named is MV4-11. Description: Cell proliferation inhibition (CellTiter-Glo), MV4-11. The data set is classed as cell-based. The note with it: MV4-11 cells. Put shortly: as §6
In data set [6] the target is Menin/MLL-4-43 peptide interaction (Homo sapiens (Human), UniProt O00255). Briefly: Menin-MLL interaction inhibitory activity assay (fluorescence polarization competition). The data set is classed as binding. The note with it: FITC-MLL4-43-peptide, Menin recombinant protein. Put shortly: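 Menin (8 nM solution) was preincubated 15 min with compound, then FITC-MLL4-43 peptide (10 nM solution) was added and shaken for 60 min at 25 °C. The buffer was 50 mM Tris pH 7.5, 50 mM NaCl, 1 mM DTT. IC50 was derived from fluorescence polarization read at 485/520 nm.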
Menin/MLL-4-43 peptide interaction, sequence (O00255 whole entry, species assumed): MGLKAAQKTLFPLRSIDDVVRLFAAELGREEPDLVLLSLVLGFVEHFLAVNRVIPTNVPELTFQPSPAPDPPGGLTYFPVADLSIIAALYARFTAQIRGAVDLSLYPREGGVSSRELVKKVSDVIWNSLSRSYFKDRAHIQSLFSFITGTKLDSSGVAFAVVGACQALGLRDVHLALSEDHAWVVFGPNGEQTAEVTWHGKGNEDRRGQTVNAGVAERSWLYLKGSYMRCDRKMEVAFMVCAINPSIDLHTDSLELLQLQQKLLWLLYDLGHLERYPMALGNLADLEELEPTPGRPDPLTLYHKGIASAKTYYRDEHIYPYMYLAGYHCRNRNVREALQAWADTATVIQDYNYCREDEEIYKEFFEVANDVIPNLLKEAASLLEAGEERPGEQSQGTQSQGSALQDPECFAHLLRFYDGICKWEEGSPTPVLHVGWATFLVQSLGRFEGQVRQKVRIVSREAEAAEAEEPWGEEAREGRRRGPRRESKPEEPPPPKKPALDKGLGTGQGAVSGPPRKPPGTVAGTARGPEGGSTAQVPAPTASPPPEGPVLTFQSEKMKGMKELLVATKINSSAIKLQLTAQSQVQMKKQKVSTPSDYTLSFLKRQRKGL

Data set [7] in a line: Stability in dog liver microsomes. The data set is classed as in vitro ADME. The conditions noted are these: 0.5 mg/mL microsomal protein, 1.00 μM compound, NADPH; for half-life at 1 μM: dog, liver microsomes, pH 7.4, Dog, read-out: Half life T1/2, dog liver microsomes. The procedure:
as §1, §2, §3, §4, §5

Data set [8] deals with hERG potassium ion channel (Homo sapiens (Human), UniProt Q12809). Briefly: hERG potassium channel effect test (manual patch clamp, HEK293 cells overexpressing hERG). The data set is classed as cell-based. The procedure: Test Example 6: hERG Potassium Channel Effect Test
hERG potassium ion channel, sequence (Q12809 whole entry): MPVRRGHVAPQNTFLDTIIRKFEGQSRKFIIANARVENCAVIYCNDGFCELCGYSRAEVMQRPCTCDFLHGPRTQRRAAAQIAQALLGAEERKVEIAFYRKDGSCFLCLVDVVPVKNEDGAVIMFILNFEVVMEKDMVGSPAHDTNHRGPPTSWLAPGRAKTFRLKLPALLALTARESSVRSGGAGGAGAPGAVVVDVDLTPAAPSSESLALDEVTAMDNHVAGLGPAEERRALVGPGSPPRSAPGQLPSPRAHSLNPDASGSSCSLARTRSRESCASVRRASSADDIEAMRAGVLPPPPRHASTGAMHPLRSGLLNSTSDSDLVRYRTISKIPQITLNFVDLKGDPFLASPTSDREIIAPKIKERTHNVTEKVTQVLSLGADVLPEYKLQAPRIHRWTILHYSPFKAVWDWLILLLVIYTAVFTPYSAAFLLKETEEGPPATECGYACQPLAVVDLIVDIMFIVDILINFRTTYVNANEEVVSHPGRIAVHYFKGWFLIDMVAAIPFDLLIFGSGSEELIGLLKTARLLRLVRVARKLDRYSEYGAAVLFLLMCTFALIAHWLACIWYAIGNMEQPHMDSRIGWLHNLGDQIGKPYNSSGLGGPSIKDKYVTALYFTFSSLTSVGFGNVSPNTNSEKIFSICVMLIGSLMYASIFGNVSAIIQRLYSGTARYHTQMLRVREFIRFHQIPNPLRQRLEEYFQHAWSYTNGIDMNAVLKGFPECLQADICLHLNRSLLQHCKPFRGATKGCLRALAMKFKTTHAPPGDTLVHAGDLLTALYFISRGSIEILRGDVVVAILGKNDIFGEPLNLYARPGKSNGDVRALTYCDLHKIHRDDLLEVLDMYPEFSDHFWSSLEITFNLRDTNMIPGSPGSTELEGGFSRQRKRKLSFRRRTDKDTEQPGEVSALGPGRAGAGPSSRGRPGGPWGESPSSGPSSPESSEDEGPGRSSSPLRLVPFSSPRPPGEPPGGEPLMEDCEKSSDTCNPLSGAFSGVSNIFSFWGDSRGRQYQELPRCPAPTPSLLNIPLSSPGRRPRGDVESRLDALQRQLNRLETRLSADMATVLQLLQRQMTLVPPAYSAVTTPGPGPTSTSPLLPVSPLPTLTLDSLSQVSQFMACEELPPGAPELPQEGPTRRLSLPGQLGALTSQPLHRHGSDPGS
The hERG inhibition test was performed on some of the example compounds of the present disclosure using the manual electrophysiological patch clamp method. The cell line was derived from HEK293 cells that overexpressed hERG potassium ion channels. The specific experimental protocol was developed by PharmaCore Labs with reference to literature published in peer-reviewed journals and was performed by PharmaCore Labs in accordance with its standard experimental operating procedures. The highest test concentration was 30 μM.

On to `[2H]C([2H])([2H])C1C[C@]2(CC[C@@H](CN3CCC4(CC3)CN(c3ncnnc3Oc3ccc(F)cc3C(=O)N(C(C)C)C(C)C)C4)CC2)NC1=O` (single isomer, unassigned) [Example 43-1], for which the figures for the half-life at 1 μM in data set [1], in data set [3] and in data set [7] were 70 min, 34.9 min and 35.4 min, respectively. Also, the GI50 in data set [2] (Homo sapiens, OCI-AML-3, 168 h) amounted to 92 nM; in data set [4] (Homo sapiens, MOLM-13, 168 h), 133 nM; in data set [5] (72 h), 27.8 nM. For the same compound, the IC50 in data set [6] was 12.4 nM.

In the case of `CC(C)N(C(=O)c1cc(F)ccc1Oc1nncnc1N1CC2(CCN(C[C@H]3CC[C@]4(CC3)CC(C(C)(C)O)C(=O)N4)CC2)C1)C(C)C` (single isomer, unassigned) [Example 59-1b], the figures for the half-life at 1 μM in data set [1], in data set [3] and in data set [7] were 99 min, 28.7 min and 70.2 min, respectively. Moreover, the GI50 in data set [2] (168 h) amounted to 20.1 nM; in data set [4] (168 h), 34.3 nM; in data set [5] (72 h), 9.5 nM. Moreover, the IC50 in data set [6] is 10.3 nM.

Consider `CCN(C(=O)c1cc(F)ccc1Oc1nncnc1N1CC2(CCN(C[C@H]3CC[C@@]4(CCC(=O)N4)CC3)CC2)C1)C(C)C` [Example 7], for which the half-life at 1 μM in data set [1] is above 120 min; in data set [3], 77.9 min; in data set [7], 60.3 min. Moreover, the GI50 in data set [2] (Homo sapiens, OCI-AML-3, 168 h) was determined as 323 nM; in data set [4] (Homo sapiens, MOLM-13, 168 h), 389 nM; in data set [5] (Homo sapiens, MV4-11, 72 h) it was 137 nM. Further, in data set [6], the IC50 stood at 62.1 nM.

For the compound `CC1C[C@]2(CC[C@@H](CN3CCC4(CC3)CN(c3ncnnc3Oc3ccc(F)cc3C(=O)N(C(C)C)C(C)C)C4)CC2)NC1=O` (stereo partly shown) [Example 41-1], the inhibition at 30 μM in data set [8] (human, HEK293 cells overexpressing hERG potassium ion channels, 30 μm, read-out: Average inhibition rate of hERG current at the highest compound tested concentration) was 13.2%. For the same compound, the IC50 in data set [8] (manual patch clamp, highest test concentration 30 μM) is above 30 µM; in data set [6] it was 10.8 nM. Also, the concentration for 50% growth inhibition (GI50) in data set [2] (Homo sapiens, OCI-AML-3, 168 h) worked out at 64.1 nM; in data set [4] (Homo sapiens, MOLM-13, 168 h) it was 52.7 nM; in data set [5] (Homo sapiens, MV4-11, 72 h) it was 25.5 nM.

Turning to `CC(C)N(C(=O)c1cc(F)ccc1Oc1nncnc1N1CC2(CCN(C[C@H]3CC[C@@]4(CCC(=O)N4)CC3)CC2)C1)C(C)C` [Example 8], the values for the half-life at 1 μM in data set [1], in data set [3] and in data set [7] were 66.6 min, 47.1 min and 93.7 min, respectively. For the same compound, the GI50 in data set [2] (Homo sapiens, OCI-AML-3, 168 h) stood at 142 nM; in data set [4] (Homo sapiens, MOLM-13, 168 h), 96.4 nM; in data set [5] (Homo sapiens, MV4-11, 72 h), 197 nM. Moreover, in data set [6], the IC50 amounted to 67.2 nM.

As to `CCN(C(=O)c1cc(F)ccc1Oc1nncnc1N1CC2(CCN(C[C@H]3CC[C@]4(CC3)CC3(CCOCC3)C(=O)N4)CC2)C1)C(C)C` [Example 45], the half-life at 1 μM in data set [1] was above 120 min; in data set [3] it was 37.1 min; in data set [7], 91.9 min. Also, the GI50 was found to be 48.4 nM in data set [2] (Homo sapiens, OCI-AML-3, 168 h); 54.1 nM in data set [4] (Homo sapiens, MOLM-13, 168 h); 12.7 nM in data set [5] (Homo sapiens, MV4-11, 72 h). In addition, in data set [6], the IC50 was determined as 2.5 nM.

Regarding `[2H]C([2H])([2H])C1C[C@]2(CC[C@@H](CN3CCC4(CC3)CN(c3ncnnc3Oc3ccc(F)cc3C(=O)N(CC)C(C)C)C4)CC2)NC1=O` (single isomer, unassigned) [Example 42-1], the half-life at 1 μM was above 120 min in data set [1], 45.4 min in data set [3] and 79.9 min in data set [7]. Moreover, the GI50 in data set [2] (Homo sapiens, OCI-AML-3, 168 h) worked out at 111 nM; in data set [4] (Homo sapiens, MOLM-13, 168 h), 216 nM; in data set [5] (Homo sapiens, MV4-11, 72 h), 45.4 nM. In addition, the IC50 in data set [6] came to 15.3 nM.

As for `CCN(C(=O)c1cc(F)ccc1Oc1nncnc1N1CC2(CCN(C[C@H]3CC[C@]4(CC3)C[C@@H](COC)C(=O)N4)CC2)C1)C(C)C` [Example 37-2], the half-life at 1 μM in data set [1] is above 120 min; in data set [3] it was 65.2 min; in data set [7], 90.2 min. Also, the GI50 in data set [2] (Homo sapiens, OCI-AML-3, 168 h) amounted to 40.9 nM; in data set [4] (Homo sapiens, MOLM-13, 168 h), 46.5 nM; in data set [5] (Homo sapiens, MV4-11, 72 h) it was 15.2 nM. In data set [6], the IC50 came to 3.3 nM.

`CCN(C(=O)c1cc(F)ccc1Oc1nncnc1N1CC2(CCN(C[C@H]3CC[C@]4(CC3)CC(C(C)(C)O)C(=O)N4)CC2)C1)C(C)C` (single isomer, unassigned) [Example 58-1b]: the “Half life T1/2, mouse liver microsomes” value in data set [1] (0.5 mg/mL microsomal protein) was above 120 min. Further, the results for the GI50 in data set [2] (168 h), in data set [4] (168 h) and in data set [5] (72 h) were 30.2 nM, 56.9 nM and 18 nM, respectively. In data set [3] (Human), the “Half life T1/2, human liver microsomes” value is reported as 35.58 min. Also, in data set [6], the IC50 turned out to be 5.9 nM. Also, in data set [7] (Dog), the “Half life T1/2, dog liver microsomes” value is reported as 68.37 min.

For the compound `CCN(C(=O)c1cc(F)ccc1Oc1nncnc1N1CC2(CCN(C[C@H]3CC[C@]4(CC3)CC(C)(C)C(=O)N4)CC2)C1)C(C)C` [Example 26], the half-life at 1 μM worked out at 79.7 min in data set [1], 37.1 min in data set [3] and 62.4 min in data set [7]. For the same compound, the GI50 worked out at 94 nM in data set [2] (Homo sapiens, OCI-AML-3, 168 h); 162 nM in data set [4] (Homo sapiens, MOLM-13, 168 h); 19.2 nM in data set [5] (Homo sapiens, MV4-11, 72 h). In data set [6], the half-inhibitory concentration (IC50) stood at 7.4 nM.

`CCN(C(=O)c1cc(F)ccc1Oc1nncnc1N1CC2(CCN(CC3CCC4(CC3)CN(C)C(=O)N4)CC2)C1)C(C)C` (single isomer, unassigned) [Example 46-1]: the half-life at 1 μM in data set [1] is above 120 min; in data set [3] it was 78.5 min; in data set [7], above 120 min. The GI50 in data set [2] (Homo sapiens, OCI-AML-3, 168 h) worked out at 140 nM; in data set [4] (Homo sapiens, MOLM-13, 168 h) it was 329 nM; in data set [5] (Homo sapiens, MV4-11, 72 h) it was 100 nM. The IC50 in data set [6] worked out at 35.3 nM.
